Reference: ChEMBL document CHEMBL1144378, “Analogues of the neuroprotective tripeptide Gly-Pro-Glu (GPE): synthesis and structure-activity relationships” (Bioorg Med Chem Lett, 2005)
Calls of active or inactive are those of the source. The calls are words filed in the database; no cut-off is given here.

biological target: Glutamate NMDA receptor; assay: Displacement of L-[3H]glutamate from N-methyl-D-aspartate glutamate receptor in rat brain synaptic membranes; type: cell membranes, Membrane; conditions: not given

Row | SMILES | Ki
1 | N[C@H](CCCP(=O)(O)O)C(=O)O | 3.83 µM

biological target: Glutamate NMDA receptor (Rattus norvegicus) (UniProt P35439+Q00959+Q00960+Q00961+Q62645+Q8VHN2+Q9R1M7); assay: Displacement of L-[3H]glutamate from N-methyl-D-aspartate glutamate receptor in rat brain synaptic membranes; No displacement up to 100 uM; type: cell membranes; conditions: Membrane

Row | Activity | SMILES
2 | inactive | CC1(C)SC[C@H](C(=O)N[C@@H](CCC(=O)O)C(=O)O)N1C(=O)CN
3 | inactive | NCC(=O)N1CCC[C@@H]1C(=O)N[C@@H](CCC(=O)O)C(=O)O
4 | inactive | NCC(=O)N1CCC[C@H]1C(=O)N[C@@H](CC(=O)O)C(=O)O

Second part, the compound before the results:

Row | SMILES | Activity
5 | NCC(=O)N1CCC[C@@H]1C(=O)N[C@H](CCC(=O)O)C(=O)O | inactive
6 | NCC(=O)N1CCC[C@H]1C(=O)N[C@H](CCC(=O)O)C(=O)O | inactive
7 | NCC(=O)N1CCC[C@H]1C(=O)N[C@H](CC(=O)O)C(=O)O | inactive
8 | NCC(=O)N1CCC[C@H]1C(=O)N[C@H](CCCC(=O)O)C(=O)O | inactive
9 | NCC(=O)N1CCC[C@H]1C(=O)N[C@@H](CCCC(=O)O)C(=O)O | inactive
10 | NCC(=O)N1CSC[C@@H]1C(=O)N[C@@H](CCC(=O)O)C(=O)O | inactive
